According to PubChem BioAssay AID1845219 (Molecular Pharmacology Branch, DTP, NCI, 2023):

System: SYO-1 tumor spheroids, viability % test/control
Assay: Anticancer human tumor SYO-1 cell line growth inhibition;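 also: spheroids exposed to agents for 7 days before viability read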;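 as to viability, T/C: 100% = DMSO vehicle control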
Conditions: spheroids with HUVEC and MSC; for IC50: curve of first compound; for viability, T/C: stronger effect = lower value
In short: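 Complex spheroids of malignant cells with endothelial cells and mesenchymal stem cells; agents alone or combined, from near clinical Cmax (or 10 microM if unknown) down in half-log steps, 0.25% DMSO final.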

[1] = second compound 0.003 µM, first compound 0.0316 µM
[2] = second compound 0.003 µM, first compound 0.1 µM
[3] = second compound 0.003 µM, first compound 0.316 µM
[4] = second compound 0.003 µM, first compound 1 µM
[5] = second compound 0.003 µM, first compound 3.16 µM
[6] = second compound 0.003 µM, first compound 10 µM
[7] = second compound 0.00949 µM, first compound 0.0316 µM
[8] = second compound 0.00949 µM, first compound 0.1 µM
[9] = second compound 0.00949 µM, first compound 0.316 µM
[10] = second compound 0.00949 µM, first compound 1 µM
[11] = second compound 0.00949 µM, first compound 3.16 µM
[12] = second compound 0.00949 µM, first compound 10 µM
[13] = second compound 0.03 µM, first compound 0.0316 µM
[14] = second compound 0.03 µM, first compound 0.1 µM
[15] = second compound 0.03 µM, first compound 0.316 µM
[16] = second compound 0.03 µM, first compound 1 µM
[17] = second compound 0.03 µM, first compound 3.16 µM
[18] = second compound 0.03 µM, first compound 10 µM
[19] = second compound 0.0949 µM, first compound 0.0316 µM
[20] = second compound 0.0949 µM, first compound 0.1 µM
[21] = second compound 0.0949 µM, first compound 0.316 µM
[22] = second compound 0.0949 µM, first compound 1 µM
[23] = second compound 0.0949 µM, first compound 3.16 µM
[24] = second compound 0.0949 µM, first compound 10 µM
[25] = second compound 0.3 µM, first compound 0.0316 µM
[26] = second compound 0.3 µM, first compound 0.1 µM
[27] = second compound 0.3 µM, first compound 0.316 µM
[28] = second compound 0.3 µM, first compound 1 µM
[29] = second compound 0.3 µM, first compound 3.16 µM
[30] = second compound 0.3 µM, first compound 10 µM

SMILES	IC50 (second compound 0.003 µM)	IC50 (second compound 0.00949 µM)	IC50 (second compound 0.03 µM)	IC50 (second compound 0.0949 µM)	IC50 (second compound 0.3 µM)	viability, T/C [1]	viability, T/C [2]	viability, T/C [3]	viability, T/C [4]	viability, T/C [5]	viability, T/C [6]	viability, T/C [7]	viability, T/C [8]	viability, T/C [9]	viability, T/C [10]	viability, T/C [11]	viability, T/C [12]	viability, T/C [13]	viability, T/C [14]	viability, T/C [15]	also measured
CC(C)n1c(=O)n(C)c2cnc3cc(F)c(-c4ccc(OCCCN5CCCCC5)nc4)cc3c21 + CC[C@@]1(O)C(=O)OCc2c1cc1n(c2=O)Cc2cc3c(CN(C)C)c(O)ccc3nc2-1	< 31.6 nM	< 31.6 nM	< 31.6 nM	< 31.6 nM	< 31.6 nM	7.3%	7.98%	8.08%	5.73%	1.45%	0.47%	2.88%	3.1%	2.8%	2.56%	1.27%	0.3%	2.53%	2.44%	2.23%	viability, T/C [16]: 2.14%; viability, T/C [17]: 1.02%; viability, T/C [18]: 0.26%; viability, T/C [19]: 1.61%; viability, T/C [20]: 1.69%; viability, T/C [21]: 1.67%; viability, T/C [22]: 1.34%; viability, T/C [23]: 1.18%; viability, T/C [24]: 0.25%; viability, T/C [25]: 1.48%; viability, T/C [26]: 1.31%; viability, T/C [27]: 1.3%; viability, T/C [28]: 1.31%; viability, T/C [29]: 0.93%; viability, T/C [30]: 0.28%
CC1COCCN1c1cc(-c2ccnn2C)c2ccnc(-c3ccn[nH]3)c2n1 (stereo not given) + CC[C@@]1(O)C(=O)OCc2c1cc1n(c2=O)Cc2cc3c(CN(C)C)c(O)ccc3nc2-1	< 31.6 nM	< 31.6 nM	< 31.6 nM	< 31.6 nM	< 31.6 nM	2.41%	1.6%	1.52%	1.01%	0.46%	0.49%	1.89%	1.76%	1.42%	0.94%	0.47%	0.42%	1.75%	1.64%	1.18%	viability, T/C [16]: 0.74%; viability, T/C [17]: 0.43%; viability, T/C [18]: 0.42%; viability, T/C [19]: 1.31%; viability, T/C [20]: 1.48%; viability, T/C [21]: 0.96%; viability, T/C [22]: 0.68%; viability, T/C [23]: 0.44%; viability, T/C [24]: 0.41%; viability, T/C [25]: 1.79%; viability, T/C [26]: 1.55%; viability, T/C [27]: 1.05%; viability, T/C [28]: 0.66%; viability, T/C [29]: 0.47%; viability, T/C [30]: 0.49%
COc1cc(C)[nH]c(=O)c1CN1CCc2c(Cl)cc(C(OC)C3COC3)c(Cl)c2C1=O (stereo not given) + CC[C@@]1(O)C(=O)OCc2c1cc1n(c2=O)Cc2cc3c(CN(C)C)c(O)ccc3nc2-1	777 nM	< 31.6 nM	< 31.6 nM	< 31.6 nM	< 31.6 nM	99.8%	96.1%	71.5%	44.5%	33.9%	32.8%	22.7%	18.1%	8.42%	5.82%	5.77%	4.94%	1.81%	2.29%	2.26%	viability, T/C [16]: 2.14%; viability, T/C [17]: 2.28%; viability, T/C [18]: 2.42%; viability, T/C [19]: 1.63%; viability, T/C [20]: 1.59%; viability, T/C [21]: 1.59%; viability, T/C [22]: 1.68%; viability, T/C [23]: 1.72%; viability, T/C [24]: 1.9%; viability, T/C [25]: 2%; viability, T/C [26]: 2.17%; viability, T/C [27]: 2.06%; viability, T/C [28]: 1.88%; viability, T/C [29]: 1.89%; viability, T/C [30]: 2.12%
COc1ccc([C@@H](O)c2cc(-c3ncnc4cc(N5CCOCC5)ccc34)c(F)cc2Cl)nn1 + CC[C@@]1(O)C(=O)OCc2c1cc1n(c2=O)Cc2cc3c(CN(C)C)c(O)ccc3nc2-1	1770 nM	< 31.6 nM	< 31.6 nM	< 31.6 nM	< 31.6 nM	94.3%	99.1%	94.7%	87.6%	11.8%	2.63%	41.7%	33.1%	44.8%	17.1%	1.57%	0.79%	1.67%	1.43%	1.42%	viability, T/C [16]: 0.87%; viability, T/C [17]: 0.63%; viability, T/C [18]: 0.71%; viability, T/C [19]: 1.2%; viability, T/C [20]: 1.26%; viability, T/C [21]: 1.18%; viability, T/C [22]: 1.01%; viability, T/C [23]: 0.75%; viability, T/C [24]: 0.54%; viability, T/C [25]: 1.43%; viability, T/C [26]: 1.86%; viability, T/C [27]: 1.46%; viability, T/C [28]: 0.88%; viability, T/C [29]: 0.2%; viability, T/C [30]: 0.21%
[2H]c1nc(C)nc([2H])c1-c1cc(NC[C@@H](C)c2cccc3c(C(=O)NC)ccnc23)ncn1 + CC[C@@]1(O)C(=O)OCc2c1cc1n(c2=O)Cc2cc3c(CN(C)C)c(O)ccc3nc2-1	> 10000 nM	< 31.6 nM	< 31.6 nM	< 31.6 nM	< 31.6 nM	92.5%	99.4%	94.6%	93%	92.3%	93.7%	25.9%	31.1%	28.9%	20%	19.2%	17.2%	1.86%	2.19%	1.77%	viability, T/C [16]: 2.01%; viability, T/C [17]: 1.73%; viability, T/C [18]: 1.75%; viability, T/C [19]: 1.57%; viability, T/C [20]: 1.61%; viability, T/C [21]: 1.6%; viability, T/C [22]: 1.39%; viability, T/C [23]: 1.9%; viability, T/C [24]: 1.55%; viability, T/C [25]: 1.71%; viability, T/C [26]: 1.76%; viability, T/C [27]: 2.05%; viability, T/C [28]: 1.52%; viability, T/C [29]: 1.73%; viability, T/C [30]: 2.12%
